Results on one compound are retold here after US6482255B1, “Disazodyes for ink jet printing” (Avecia Limited, priority 1997, dated 2002).

The nature of this data set: Solubility of dye or dye composition in water. In kind it is physicochemical. The protocol:
The method of Example 1 was repeated except that the condensation reaction with ethanolamine in stage (iv) was stopped after 2.5 hours. The product was a mixture of Dye (A), Dye (B) and Dye (C) in relative proportions 43:35:22 by weight. This dye mixture has a solubility of 10% in water at 20° C. compared to a solubility of 3% for Dye (A) alone under the same conditions.
The ratio of Dyes (A), (B) and (C) in Example 4 may be varied by altering the time and temperature of the ethanolamine condensation step (Example 1, step (iv)). The solubility of a variety of dye compositions in water at 20° C. and pH 9.5 is shown in Table 2 below together with optical density, light fastness (ΔE after 50 hours) and wet-fastness results of prints prepared from these compositions. The prints were prepared by printing an ink formed by dissolving 2.5 parts of each composition in 97.5 parts of a mixture consisting of 88 parts water, 5 parts thiodiglycol, 5 parts 2-pyrrolidone and 2 parts Surfynol 465™ (a non-ionic surfactant) onto the substrate shown in the third column of Table 2 using a Canon 4300 ink jet printer.

Structures are written as SMILES.

Consider `CNCCCNc1nc(NCCO)nc(Nc2ccc(/N=N/c3c(N)ccc4cc(S(=O)(=O)O)cc(O)c34)c(S(=O)(=O)O)c2)n1` [Dye (1)], for which the solubility in water (water at 20° C.) is listed as 3%. Besides, the “Solubility (%)” value (water at 20° C. and pH 9.5) is listed as 3%.
